Experimental data reported in patent US20250051510A1, “CARBON-IODINE CONJUGATED POLYMER AND PREPARATION THEREOF, AND USE THEREOF FOR PREPARING LOCALIZATION MARKER” (Huazhong University of Science and Technology, priority 2021, published 2025).

Assays:
[1] = Local injection into rat leg muscles under CT guidance, CT marking over time; format: in vivo; settings: rat leg muscle, iodine content increased by 25 times
Experimental: In order to verify whether the super-strong CT imaging effect of PIDA is practically applicable, the PIDA dispersion and iohexol with the same iodine content were injected locally into leg muscles of a rat respectively under CT guidance in the present invention. For effective CT marking, the CT signal intensity thereof should be 2 times or more that of background tissues. A background CT signal of rat muscle tissues is about 50 HU, so the CT marking signal intensity exceeding 100 HU can be regarded as effective CT marking. […] To further verify the high efficiency and location stability of PIDA CT imaging, in the present invention, iohexol with the iodine content being increased by 25 times was injected into a corresponding leg muscle site of a rat.

rat erythrocytes = assay: Hemolysis test with rat erythrocytes; format: cell-based; settings: PIDA dispersions of different concentrations; Triton = 100% hemolysis control
Experimental: When a material is applied in the biomedical field, in addition to the special imaging/treatment effect of the material, the biocompatibility of the material itself is the topic that people are most concerned about. At the cell level, PIDA dispersions of different concentrations were mixed with rat erythrocytes in the present invention. […] In addition, in the present invention, PIDA dispersions of different concentrations were respectively incubated together with 4Tl cells (mouse breast cancer cells), NIH 3T3 cells (mouse embryonic fibroblasts) and HEK 293T (human embryonic kidney cells) for 12 hours, and cell viability was verified by means of MTT verification.

For `CC(=O)N(CC(O)CO)c1c(I)c(C(=O)NCC(O)CO)c(I)c(C(=O)NCC(O)CO)c1I` (centres unmarked) [iohexol], the “time until CT enhancement completely disappeared” value [1] was ≤ 6 h.
For Triton, the hemolysis rate (rat erythrocytes) was “complete hemolysis”.
